The assay addresses GST-hRIPK1 (8-327) (Homo sapiens (Human), UniProt Q13546). The experiment in a line: Fluorescent Polarization Binding (FP Binding) assay, RIPK1. The following applies: mean of at least two independent experiments. The method, boiled down: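 Binding by fluorescence polarisation at RT: 10 nM baculovirus-expressed GST-hRIPK1 (8-327) and 5 nM fluorescent ligand, 30 min, in 50 mM HEPES pH 7.5, 50 mM MgCl2, 0.02% CHAPS, 1% DMSO. FP read at ex 531/em 595 nm. IC50 from normalised percent inhibition, mean of ≥2 experiments.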

Chain of GST-hRIPK1 (8-327) (Q13546 8-327): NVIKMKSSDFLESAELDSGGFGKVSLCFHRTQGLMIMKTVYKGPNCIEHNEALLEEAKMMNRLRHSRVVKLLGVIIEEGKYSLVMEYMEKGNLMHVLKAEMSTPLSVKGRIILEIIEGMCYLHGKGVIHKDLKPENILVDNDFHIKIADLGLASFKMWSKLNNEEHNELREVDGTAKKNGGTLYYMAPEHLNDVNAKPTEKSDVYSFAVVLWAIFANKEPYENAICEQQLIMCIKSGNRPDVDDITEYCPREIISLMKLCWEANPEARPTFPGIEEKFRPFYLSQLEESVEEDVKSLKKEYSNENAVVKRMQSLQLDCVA

Regarding `N#Cc1cncc2c1OCCN(C(=O)C1CCN(c3ncc(F)cn3)CC1(F)F)C2` (stereo not shown) [Example 243, 4-[3,3-difluoro-1-(5-fluoropyrimidin-2-yl)piperidine-4-carbonyl]-3,5-dihydro-2H-pyrido[3,4-f][1,4]oxazepine-9-carbonitrile], the IC50 (in general, the concentration needed to halve the response being measured) (GST-hRIPK1 (8-327)) lay within 100 to 1000 nM.

`CC(C)(C(=O)N1CCOc2c(F)cncc2C1)C(F)(F)F` [Example 79, 3,3,3-trifluoro-1-(9-fluoro-3,5-dihydro-2H-pyrido[3,4-f][1,4]oxazepin-4-yl)-2,2-dimethyl-propan-1-one] yielded an IC50 (10 nM GST-hRIPK1 (8-327), 5 nM fluorescent-labeled ligand, RT, 30 min) of 100 to 1000 nM.

As to `O=C(C1CCN(c2ncnc(OCC(F)F)n2)CC1)N1CCOc2c(F)cncc2C1` [Example 210, [1-[4-(2,2-difluoroethoxy)-1,3,5-triazin-2-yl]-4-piperidyl]-(9-fluoro-3,5-dihydro-2H-pyrido[3,4-f][1,4]oxazepin-4-yl)methanone], for the setting “GST-hRIPK1 (8-327)”, the IC50 was in the range of 100 to 1000 nM.

Compound `COC1(C(=O)N2CCOc3ccncc3C2)CCN(c2ncc(F)cn2)CC1` [Example 234, 3,5-dihydro-2H-pyrido[3,4-f][1,4]oxazepin-4-yl-[1-(5-fluoropyrimidin-2-yl)-4-methoxy-4-piperidyl]methanone] registered an IC50 (GST-hRIPK1 (8-327)) of 0.1 to 100 nM.

The values are drawn from patent US11203600B2 (Denali Therapeutics Inc., priority 2017, dated 2021).
